Source: patent US20190151312A1, “HEPARAN SULFATE BIOSYNTHESIS INHIBITORS FOR THE TREATMENT OF DISEASES” (BioMarin Pharmaceutical Inc., priority 2014, published 2019)

Tested on: GM01896 cells (MPS II dermal fibroblasts)
Assay: Assay 1: MPS cellular assay, MPS II (heparan sulfate disaccharide biomarkers by LC-MS)
Assay type: cell-based, human
Details: Homo sapiens, Fibroblast, Assay 1 for MPS II, heparan sulfate disaccharide biomarkers (I2a4, I2a6, I2S0 and/or I2S6), read-out: IC50 Range
Procedure, shortened: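 Heparan sulfate disaccharide biomarkers quantified by LC-MS after heparinase I/II/III digestion and isotopic aniline labelling, using GM01896 MPS II fibroblasts exposed to compound (at or below 30 μM, 4-21 days). Values given as IC50 by curve fitting; cell viability checked with alamar blue or ATP.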

Row | Compound | IC50 [nM]
1 | Cc1nn(C)c2cc(-c3cc(Nc4ccc(-n5nccn5)cc4)nc(N4CCOCC4)n3)ccc12 [[6-(1,3-dimethyl(1H-indazol-6-yl))-2-morpholin-4-ylpyrimidin-4-yl](4-(1,2,3-triazol-2-yl)phenyl)amine] | < 500
2 | Cc1nc2ccc(-c3cc(Nc4ccc(Cl)cc4)nc(N4CCOCC4)n3)cc2n1CCCN1CCOCC1 [(4-chlorophenyl){6-[2-methyl-1-(3-morpholin-4-ylpropyl)benzimidazol-6-yl]-2-morpholin-4-ylpyrimidin-4-yl}amine] | 1000 to 5000
3 | Cn1cnc2ccc(-c3cc(Nc4ccc(NS(C)(=O)=O)cc4)nc(N4CCOCC4)n3)cc21 [(4-{[6-(1-methylbenzimidazol-6-yl)-2-morpholin-4-ylpyrimidin-4-yl]amino}phenyl)(methylsulfonyl)amine] | 1000 to 5000
4 | Cn1nc(CCN2CCOCC2)c2ccc(-c3cc(Nc4ccc(Cl)cc4)nc(N4CCOCC4)n3)cc21 [(4-chlorophenyl){6-[1-methyl-3-(2-morpholin-4-ylethyl)(1H-indazol-6-yl)]-2-morpholin-4-ylpyrimidin-4-yl}amine] | 500 to 1000
5 | Cc1nn(CCCN(C)C)c2cc(-c3cc(Nc4ccc(Cl)cc4)nc(N4CCOCC4)n3)ccc12 [[3-(6-{6-[(4-chlorophenyl)amino]-2-morpholin-4-ylpyrimidin-4-yl}-3-methyl(1H-indazolyl))propyl]dimethylamine] | 500 to 1000
6 | COc1ccc(Nc2cc(-c3ccc4ncn(C)c4c3)nc(N3CCOCC3)n2)cc1 [(4-methoxyphenyl)[6-(1-methylbenzimidazol-6-yl)-2-morpholin-4-ylpyrimidin-4-yl]amine] | 1000 to 5000
7 | Cn1cnc2ccc(-c3cc(Nc4ccc(C(=O)NC5CC5)nc4)nc(N4CCOCC4)n3)cc21 [N-cyclopropyl(5-{[6-(1-methylbenzimidazol-6-yl)-2-morpholin-4-ylpyrimidin-4-yl]amino}(2-pyridyl))carboxamide] | 500 to 1000
8 | CNC(=O)c1ccc(Nc2cc(-c3ccc4ncn(CC5CC5)c4c3)nc(N3CCOCC3)n2)cn1 [[5-({6-[1-(cyclopropylmethyl)benzimidazol-6-yl]-2-morpholin-4-ylpyrimidin-4-yl}amino)(2-pyridyl)]-N-methylcarboxamide] | < 500
9 | Cc1c(C)n(C)c2cc(Nc3cc(-c4ccc5cnn(C)c5c4)nc(N4CCOCC4)n3)ccc12 [[6-(1-methyl(1H-indazol-6-yl))-2-morpholin-4-ylpyrimidin-4-yl](1,2,3-trimethylindol-6-yl)amine] | 1000 to 5000
10 | CNC(=O)c1ccc(Nc2cc(-c3ccc4cnn(CCN(C)C)c4c3)nc(N3CCOCC3)n2)cc1 [{4-[(6-{1-[2-(dimethylamino)ethyl](1H-indazol-6-yl)}-2-morpholin-4-ylpyrimidin-4-yl)amino]phenyl}-N-methylcarboxamide] | 500 to 1000
11 | Cc1nn(C)c2cc(-c3cc(Nc4ccc(-c5cn(C)cn5)cc4)nc(N4CCOCC4)n3)ccc12 [[6-(1,3-dimethyl(1H-indazol-6-yl))-2-morpholin-4-ylpyrimidin-4-yl][4-(1-methylimidazol-4-yl)phenyl]amine] | 1000 to 5000
12 | Cn1cc2cc(Nc3cc(-c4ccc5cnn(C)c5c4)nc(N4CCOCC4)n3)ccc2n1 [[6-(1-methyl(1H-indazol-6-yl))-2-morpholin-4-ylpyrimidin-4-yl](2-methyl(2H-indazol-5-yl))amine] | 1000 to 5000
13 | CNC(=O)c1ccc(Nc2cc(-c3ccc4cnn(CCN5CCCC5)c4c3)nc(N3CCOCC3)n2)cc1 [N-methyl[4-({2-morpholin-4-yl-6-[1-(2-pyrrolidinylethyl)(1H-indazol-6-yl)]pyrimidin-4-yl}amino)phenyl]carboxamide] | 500 to 1000
14 | CNC(=O)c1ccc(Nc2cc(-c3ccc4c(cnn4CCCN4CCOCC4)c3)nc(N3CCOCC3)n2)cc1 [N-methyl[4-({2-morpholin-4-yl-6-[1-(3-morpholin-4-ylpropyl)(1H-indazol-5-yl)]pyrimidin-4-yl}amino)phenyl]carboxamide] | 1000 to 5000
15 | Cn1ncc2ccc(-c3cc(Nc4ccc(-c5ccc[nH]5)cc4)nc(N4CCOCC4)n3)cc21 [[6-(1-methyl(1H-indazol-6-yl))-2-morpholin-4-ylpyrimidin-4-yl](4-pyrrol-2-ylphenyl)amine] | 1000 to 5000
16 | Clc1ccc(Nc2cc(-c3ccc4c(c3)ncn4CCN3CCOCC3)nc(N3CCOCC3)n2)cc1 [(4-chlorophenyl){2-morpholin-4-yl-6-[1-(2-morpholin-4-ylethyl)benzimidazol-5-yl]pyrimidin-4-yl}amine] | 500 to 1000
17 | Cn1nc(NCCN2CCCC2)c2ccc(-c3cc(Nc4ccc(Cl)cc4)nc(N4CCOCC4)n3)cc21 [(4-chlorophenyl)(6-{1-methyl-3-[(2-pyrrolidinylethyl)amino](1H-indazol-6-yl)}-2-morpholin-4-ylpyrimidin-4-yl)amine] | 500 to 1000
18 | Clc1ccc(Nc2cc(-c3cccc4[nH]cnc34)nc(N3CCOCC3)n2)cc1 [6-(1H-benzo[d]imidazol-4-yl)-N-(4-chlorophenyl)-2-morpholinopyrimidin-4-amine] | 500 to 1000

Row | Compound | IC50 [nM]
19 | Cn1cnc2cc(Nc3cc(-c4ccc5cnn(C)c5c4)nc(N4CCOCC4)n3)ccc21 [[6-(1-methyl(1H-indazol-6-yl))-2-morpholin-4-ylpyrimidin-4-yl](1-methylbenzimidazol-5-yl)amine] | 1000 to 5000
20 | CNC(=O)c1ccc(Nc2cc(-c3ccc4cnn(CCN5CCOCC5)c4c3)nc(N3CCOCC3)n2)cc1 [N-methyl[4-({2-morpholin-4-yl-6-[1-(2-morpholin-4-ylethyl)(1H-indazol-6-yl)]pyrimidin-4-yl}amino)phenyl]carboxamide] | 500 to 1000
21 | CNC(=O)c1ccc(Nc2cc(-c3ccc4c(c3)ncn4CC3CC3)nc(N3CCOCC3)n2)cn1 [[5-({6-[1-(cyclopropylmethyl)benzimidazol-5-yl]-2-morpholin-4-ylpyrimidin-4-yl}amino)(2-pyridyl)]-N-methylcarboxamide] | 500 to 1000
22 | CNC(=O)c1ccc(Nc2cc(-c3ccc4cnn(C5CCC5)c4c3)nc(N3CCOCC3)n2)cc1 [(4-{[6-(1-cyclobutyl(1H-indazol-6-yl))-2-morpholin-4-ylpyrimidin-4-yl]amino}phenyl)-N-methylcarboxamide] | < 500
23 | Cc1nn(C)c2cc(-c3cc(Nc4ccc5c(ccn5C)c4)nc(N4CCOCC4)n3)ccc12 [[6-(1,3-dimethyl(1H-indazol-6-yl))-2-morpholin-4-ylpyrimidin-4-yl](1-methylindol-5-yl)amine] | 500 to 1000
24 | Cn1ncc2ccc(-c3cc(Nc4ccc(-c5nc[nH]n5)cc4)nc(N4CCOCC4)n3)cc21 [[6-(1-methyl(1H-indazol-6-yl))-2-morpholin-4-ylpyrimidin-4-yl](4-(1,2,4-triazolyl)phenyl)amine] | 500 to 1000
25 | Cc1nnc(-c2ccc(Nc3cc(-c4ccc5c(CCN6CCOCC6)nn(C)c5c4)nc(N4CCOCC4)n3)cc2)[nH]1 [[4-(5-methyl(4H-1,2,4-triazol-3-yl))phenyl]{6-[1-methyl-3-(2-morpholin-4-ylethyl)(1H-indazol-6-yl)]-2-morpholin-4-ylpyrimidin-4-yl}amine] | < 500
26 | COCCc1nc2ccc(-c3cc(Nc4ccc(Cl)cc4)nc(N4CCOCC4)n3)cc2n1C [(4-chlorophenyl){6-[2-(2-methoxyethyl)-1-methylbenzimidazol-6-yl]-2-morpholin-4-ylpyrimidin-4-yl}amine] | 500 to 1000
27 | CNC(=O)c1ccc(Nc2cc(-c3ccc4c(C)nn(C)c4c3)nc(N3CCOCC3)n2)cc1 [(4-{[6-(1,3-dimethyl(1H-indazol-6-yl))-2-morpholin-4-ylpyrimidin-4-yl]amino}phenyl)-N-methylcarboxamide] | < 500
28 | Cn1nc(CCN2CCOCC2)c2cc(F)c(-c3cc(Nc4ccc(Cl)cc4)nc(N4CCOCC4)n3)cc21 [(4-chlorophenyl){6-[5-fluoro-1-methyl-3-(2-morpholin-4-ylethyl)(1H-indazol-6-yl)]-2-morpholin-4-ylpyrimidin-4-yl}amine] | 500 to 1000
29 | Cc1nn(C)c2cc(-c3cc(Nc4ccc5cn[nH]c5c4)nc(N4CCOCC4)n3)ccc12 [1H-indazol-6-yl[6-(1,3-dimethyl(1H-indazol-6-yl))-2-morpholin-4-ylpyrimidin-4-yl]amine] | 1000 to 5000
30 | CNC(=O)c1ccc(Nc2cc(-c3ccc4nc(C)n(C)c4c3)nc(N3CCOCC3)n2)cc1 [(4-{[6-(1,2-dimethylbenzimidazol-6-yl)-2-morpholin-4-ylpyrimidin-4-yl]amino}phenyl)-N-methylcarboxamide] | < 500
31 | CNC(=O)c1ccc(Nc2cc(-c3ccc4[nH]ncc4c3)nc(N3CCOCC3)n2)cn1 [{5-[(6-(1H-indazol-5-yl)-2-morpholin-4-ylpyrimidin-4-yl)amino](2-pyridyl)}-N-methylcarboxamide] | 500 to 1000
32 | Cc1nn(C)c2cc(-c3cc(Nc4ccc(-c5ncc(C(F)(F)F)[nH]5)cc4)nc(N4CCOCC4)n3)ccc12 [[6-(1,3-dimethyl(1H-indazol-6-yl))-2-morpholin-4-ylpyrimidin-4-yl]{4-[5-(trifluoromethyl)imidazol-2-yl]phenyl}amine] | 500 to 1000
33 | COc1ccc(Nc2cc(-c3ccc4cnn(C)c4c3)nc(N3CCOCC3)n2)cc1 [(4-methoxyphenyl)[6-(1-methyl(1H-indazol-6-yl))-2-morpholin-4-ylpyrimidin-4-yl]amine] | 1000 to 5000
34 | CN(C)CCc1nc2cc(Cc3cc(Nc4ccc(Cl)cc4)nc(N4CCOCC4)n3)ccc2[nH]1 [[2-(6-{6-[(4-chlorophenyl)amino]-2-morpholin-4-ylpyrimidin-4-yl}methylbenzimidazol-2-yl)ethyl]dimethylamine] | < 500
35 | COCCn1cnc2ccc(-c3cc(Nc4ccc(Cl)cc4)nc(N4CCOCC4)n3)cc21 [(4-chlorophenyl){6-[1-(2-methoxyethyl)benzimidazol-6-yl]-2-morpholin-4-ylpyrimidin-4-yl}amine] | 500 to 1000
36 | CN1CCN(Cc2nn(C)c3cc(-c4cc(Nc5ccc(Cl)cc5)nc(N5CCOCC5)n4)ccc23)CC1 [(4-chlorophenyl)(6-{1-methyl-3-[(4-methylpiperazinyl)methyl](1H-indazol-6-yl)}-2-morpholin-4-ylpyrimidin-4-yl)amine] | 500 to 1000
